Tests used:
[1] = molecular target: T1, human CRTh2 (Homo sapiens, UniProt Q9Y5Y4); experiment: CRTH2 cAMP functional assay in CHO.K1-CRTh2 cells; format: cell-based; design: expressed in transfected cells; host or cells: CHO.K1-CRTh2 cells; conditions: inhibition of PGD2-mediated attenuation of forskolin-induced cAMP accumulation
T1 sequence (Q9Y5Y4 1-395): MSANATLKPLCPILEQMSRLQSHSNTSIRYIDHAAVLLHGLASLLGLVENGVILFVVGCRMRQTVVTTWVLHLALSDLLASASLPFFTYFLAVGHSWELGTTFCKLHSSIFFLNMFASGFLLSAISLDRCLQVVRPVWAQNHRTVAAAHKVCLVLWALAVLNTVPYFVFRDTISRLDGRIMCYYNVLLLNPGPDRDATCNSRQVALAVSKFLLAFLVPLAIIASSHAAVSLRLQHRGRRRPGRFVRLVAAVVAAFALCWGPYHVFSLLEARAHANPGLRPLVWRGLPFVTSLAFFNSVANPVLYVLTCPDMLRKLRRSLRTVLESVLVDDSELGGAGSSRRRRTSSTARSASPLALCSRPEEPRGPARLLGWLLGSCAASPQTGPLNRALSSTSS
Experimental: This assay is conducted in CHO.K1-CRTh2 cells. cAMP is generated in the cell by stimulating cells with 5 μM forskolin, an adenylate cyclase activator. PGD2 is added to activate the CRTh2 receptor which results in the attenuation of the forskolin-induced cAMP accumulation. Potential CRTh2 antagonists are tested for their ability to inhibit the PGD2-mediated attenuation of the forskolin-induced cAMP accumulation in CHO.K1-CRTh2 cells.
For each concentration value on the dose-response curve, test compounds are prepared in assay stimulation buffer (HBSS, 5 mM HEPES, 10 μM IBMX±0.1% human serum albumin) containing DMSO (3% vol/vol) and 5 μL/well is added to an assay plate (384 well white optiplate).
CHO.K1-CRTh2 cultured in tissue culture flasks are washed with PBS and harvested with dissociation buffer. Cells are washed with PBS and resuspended in stimulation buffer to a concentration of 0.4×10^6/mL and added to the assay plate (10 μL/well).
The assay plate is incubated at room temperature on a shaker for 15 minutes.
A mix of agonist (10 nM Prostaglandin D2) and 5 μM forskolin is prepared in assay stimulation buffer and added to the assay plate (5 μL/well).
In addition, a cAMP standard is serially diluted in assay stimulation buffer and added to separate empty wells on the assay plate (20 μL/well). The cAMP standard allows for the quantification of cAMP generated in CHO.K1-CRTH2 cells.
The assay plate is incubated at room temperature on a shaker for 60 minutes.
Cell lysis buffer (Lysis buffer: Milli-Q H20, 5 mM HEPES, 0.3% Tween-20, 0.1% human serum albumin) is added to a bead mix (containing Alphascreen™ anti-cAMP acceptor beads 0.06 units/IL, Alphascreen™ streptavidin-coated donor beads 0.06 units/μL, biotinylated cAMP 0.06 units/μL, 10 μM IBMX) is prepared under darkened conditions 60 minutes prior to addition to the assay plate. The resulting lysis mix is added to all wells of the assay plate (40 μL/well).
The assay plate is sealed with Topseal-S™ and incubated in the dark at room temperature on a shaker for 45 minutes. The plate is then counted using a Packard Fusion™ instrument.
The resulting counts per minute are converted to nM cAMP by using the prepared cAMP standard curve. IC50 values (concentration of CRTh2 antagonist required to inhibit 50% of the PGD2-mediated attenuation of forskolin-induced cAMP accumulation in CHO.K1-CRTh2 cells) are then determined using Prism™ software.

[2] = molecular target: T1, human CRTh2; experiment: CRTh2 [3H]-PGD2 binding assay (filtration binding protocol; called SPA binding assay); design: expressed in transfected cells; host or cells: CHO.K1 (Chinese Hamster Ovary) cells, membrane preparation; conditions: competition with [3H]-PGD2 2.5 nM, CHO.K1-CRTh2 membranes
Experimental: The binding of CRTh2 modulators is determined using membranes prepared from human CRTh2-expressing Chinese Hamster Ovary cells (CHO.K1-CRTh2). To produce cell membranes CHO.K1-CRTh2 cells cultured in roller bottles are harvested using cell dissociation buffer (Invitrogen). The cells are pelleted by centrifugation (167 g, 5 min). The cell pellet is incubated in hypotonic buffer (15 mM Tris-OH, 2 mM MgCl2, 0.3 mM EDTA, 1 mM EGTA, 1× Complete™ tablet) at 4° C. for 30 min. At 4° C. cells are homogenized using a Polytron® (IKA Ultra Turrax T25) for 5 bursts of 1 second. The homogenate is centrifuged (Beckman Optima™ TL Ultracentrifuge, 48000 g, 30 min at 4° C.). The supernatant is discarded and the membrane pellet resuspended in homogenisation buffer (75 mM Tris-OH, 12.5 mM MgCl2, 0.3 mM EDTA, 1 mM EGTA, 250 mM Sucrose, 1× Complete™ tablet. Membrane preparations are aliquoted and stored at […]. The protein content is estimated using Bradford Protein Assay Dye (Bio Rad).
The binding of [^3H]-PGD2 (157 Ci/mmol) to CHO.K1-CRTh2 membranes is determined in the absence (total binding) and presence (non-specific binding) of unlabelled PGD2 (1 μM). Subtraction of the cpm (counts per minute) of [^3H]-PGD2 binding in presence of excess unlabelled PGD2 from that observed in the absence of excess unlabelled PGD2 is defined as specific binding. Active CRTh2 modulators are able to compete with [^3H]-PGD2 for binding to the CRTh2 receptor and are identified in a decrease in the number of cpm bound.
The assay is performed in Greiner U-bottomed 96 well-plates, in a final volume of 100 μl per well. CHO.K1-CRTh2 membranes were diluted in assay buffer (10 mM HEPES-KOH (pH 7.4), 1 mM EDTA and 10 mM MnCl2) and 10 μg are added to each well. [^3H]-PGD2 is diluted in assay buffer and added to each well at a final concentration of 2.5 nM. To determine non-specific binding, [^3H]-PGD2 binding to the CRTh2 receptor is competed with using unlabelled PGD2 at a final well concentration of 1 μM. The experiment is done in triplicate, with reagents added to the wells as follows: • 25 μL assay buffer for total binding or • 25 μL PGD2 to determine non-specific binding • 25 μL [^3H]PGD2 • 50 μL membranes • 25 μL test compound in DMSO/assay buffer
The plates are incubated at room temperature on a shaker for 1 hour, and then harvested (Tomtec Harvester 9600) onto GF/C filter plates using wash buffer (10 mM HEPES-KOH, pH 7.4). […] Plates are then counted using a Packard Top Count instrument, Plates are then read on the Packard Topcount with the 3H Scintillation program (1 min per well). • Ki (dissocation constant for the inhibition) values for the CRTh2 modulators are reported. Ki values are determined using Sigma Plot™ software, using the Cheng-Prussoff equation. […]

Cc1c(CC(=O)O)c2cccnc2n1Cc1ccc(S(=O)(=O)N2CCCCC2)cc1 [Example 4]
IC50 [1]: 0.042 µM
Ki [2]: 0.24 µM

Cc1c(CC(=O)O)c2cccnc2n1Cc1ccc(S(=O)(=O)N(C)C2CCCCC2)cc1 [Example 6, {1-[4-(Cyclohexyl-methyl-sulfamoyl)-benzyl]-2-methyl-1H-pyrrolo[2,3-b]pyridin-3-yl}-acetic acid]
IC50 [1]: 0.018 µM
Ki [2]: 0.002 µM

Cc1c(CC(=O)O)c2cccnc2n1Cc1ccc(S(=O)(=O)N2CCCC2)cc1 [Example 2]
IC50 [1]: 0.083 µM
Ki [2]: 0.034 µM

Cc1c(CC(=O)O)c2cccnc2n1Cc1ccc(S(=O)(=O)N2CCOCC2)cc1 [Example 1, {2-methyl-1-[4-(morpholine-4-sulfonyl)-benzyl]-1H-pyrrolo[2,3-b]pyridine-3-yl}acetic acid]
IC50 [1]: 0.06 µM
Ki [2]: 0.03 µM
